Assay [1] has as its system MCF7, 600MPE and HBL100 breast cancer cell lines. Description: Sensitivity of breast cancer cell lines to doxorubicin (cell death).
Assay [2] deals with 184 HMEC and ZNF217 immortalized HMEC. Nature of the assay: Doxorubicin induced cell death in ZNF217 transduced versus parental HMEC. The note with it: 100 ng/ml doxorubicin; p=0.0146. The assay is classed as cell-based. An excerpt: In order to determine if ZNF217 could confer resistance to doxorubicin on primary mammary epithelial cells, the sensitivity of HMECs which had been previously immortalized by a ZNF217-HA expression construct (Nonet, G. H. et al., 2001, supra) were compared to parental 184 HMECs with finite life span. […] Thus, as well as promoting HMEC immortalization, ZNF217 expression protects HMEC against doxorubicin-induced apoptosis.

Assay [3] has as its system HBL100 cells transfected with ZNF217-EGFP. Nature of the assay: Apoptosis assay, annexin V staining. The assay is classed as cell-based, human. The note with it: for annexin staining: ZNF217-EGFP transfected HBL100. The method, then: (§1) 1.5×10^5 of Hela cells, ZNF217-GFP transfected HeLa cells, HBL100 cells and ZNF217-GFP transfected HBL100 cells were set up in six well plates and cultured as described above. One the second day, the cells were treated with 100 ng/ml doxirubicin for 16 hours. The cell culture supernatants and cells were collected and washed twice with PBS, resuspended in 100 μl of binding buffer (10 mM HEPS, 140 mM NaCl and 2.5 mM CaCl2, pH 7.4). 5 μl of Annexin V antibody (Alexa Fluor 633 from Molecular Probes) was added and the cells were incubated at room temperature for 15 minutes. After the incubation, 400 μl of binding buffer were added and cell samples were analyzed by flow cytometry. A 633-nm wavelength laser was used to measure the apoptotic cell population. For imaging 1.5×10^4 cells were seeded in 4 well cover glass slides (Fisher). Doxorubicin treating cells 16 hours later, the cells were washed with PBS twice and 200 μl of binding buffer were added, staining process was as same as above and in the meantime, 0.5 μM of DAPI were added to satin the cell nucleus. After staining, the cells were washed twice again with PBS, 400 μl of Binding buffer were added. The apoptotic cells were imaged in Seize con-focal image system.
ZNF217 silencing RNA (siRNA) constructs were introduced into HBL100 cells transfected with znf217 and the cells were subsequently treated with Doxorubicin.
The siRNA Dicer Generation kit from Gene Therapy System was used to generate a series of siRNAs. Approximately 30 different 22 bp siRNA sequences were generated, using the following primers: […]

For assay [4], the system named is HBL100 cells. Description: Apoptosis assay, annexin V staining. In kind it is cell-based, human. The note with it: for annexin staining: HBL100. The method, then:
as §1

Where [5] appears, read: increasing concentrations, in combination with doxorubicin.
The mark [6] stands for this setting: not also treated with doxorubicin.

Each structure is given as a SMILES string.

Consider `COc1cccc2c1C(=O)c1c(O)c3c(c(O)c1C2=O)C[C@@](O)(C(=O)CO)C[C@@H]3O[C@H]1C[C@H](N)[C@H](O)[C@H](C)O1` [doxorubicin], for which the “cell death upon exposure to doxorubicin” value in assay [1] (HBL100 compared with MCF7 and 600MPE) is “higher levels of cell death”. In addition, the “resistance to doxorubicin of cell lines with high relative ZNF217 expression versus HBL100” value in assay [1] (MCF7 and 600MPE versus HBL100, all wild type TP53) is reported as “three to five-fold more resistant”. Further, in assay [2], the “less cell death in ZNF217 transduced cells than in control non-transduced 184 HMEC” value turned out to be 2.5 fold. Moreover, the “cells stained with annexin” value is on record as “Less than 40%” in assay [3] (ZNF217 transfected HBL100, doxorubicin treatment) and “About 80%” in assay [4] (control HBL100 cells, doxorubicin treatment).

`CN1N=C(N)c2cn([C@@H]3O[C@H](COP(=O)(O)O)[C@@H](O)[C@H]3O)c3ncnc1c23` [triciribine phosphate]: the cell death entry in assay [3] (HBL100 transfected with ZNF217-encoding constructs (FIG. 12), increasing concentrations, in combination with Doxorubicon) is on record as “increased cell death”; in assay [4] (HBL100 not transfected (FIG. 11), increasing concentrations, in combination with Doxorubicon), “increased cell death”. The annexin staining result in assay [3] (setting [5]) was “increased annexin staining”; in assay [3] (setting [6]), “did not display significant staining”; in assay [4] (setting [5]) it was “increased annexin staining”; in assay [4] (setting [6]), “did not display significant staining”.

The values are drawn from patent US20070037202A1, “Potentiation of cancer therapies by ZNF217 inhibition” (Regents of the University of California, priority 2002, published 2007).
